Values quoted from earlier work, collected in patent US20140378500A1, “METHODS FOR PREDICTING TUMOR REPONSE TO TARGETED THERAPIES” (20/20 Gene Systems, Inc., priority 2012, published 2014).

Test system: advanced renal cell carcinoma (RCC)
Conditions: cited from earlier work

CO[C@H]1C[C@@H]2CC[C@@H](C)[C@@](O)(O2)C(=O)C(=O)N2CCCC[C@H]2C(=O)O[C@H]([C@H](C)C[C@@H]2CC[C@@H](OC(=O)C(C)(CO)CO)[C@H](OC)C2)CC(=O)[C@H](C)/C=C(\C)[C@@H](O)[C@@H](OC)C(=O)[C@H](C)C[C@H](C)/C=C/C=C/C=C/1C [TORISEL, Temsirolimus]
kidney cancer patients who benefit materially (kidney cancer patients, mTOR inhibitors): less than 10%
response rate (patients diagnosed with advanced RCC): less than 10%
